Laboratory results from patent publication US20250122181A1, “BENZIMIDAZOLES AS MODULATORS OF IL-17” (Janssen Pharmaceutica NV, priority 2021, published 2025).

Legend:
[1] = system: IL-17A-induced G-CSF production in human normal keratinocyte (NHK); test: NHK Assay: IL-17A-induced G-CSF production in human normal keratinocyte; format: cell-based; conditions: 24 h, IL-17A 5 ng/mL, simple average if tested more than once
Outline: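 Stimulus rhIL-17A 5 ng/mL final, premixed 1 h rt with compound; adult NHK, 5% FBS, 0.2% DMSO. Viability by CellTiter-Glo vs DMSO.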

[2] = molecular target: IL-17A(FLAG-Tagged): IL-17RA(His-Tagged) (Homo sapiens, UniProt Q16552, K93Q); test: IL-17A(FLAG-Tagged): IL-17RA(His-Tagged) Binding Disruption Eu-HTRF Assay, Protocol 1; conditions: Protocol 1, FLAG tagged IL-17A 2.5 nM; simple average if tested more than once
Text: An antibody directed against the FLAG tag of IL-17A (SEQ ID NO: 1) is labeled with the HTRF donor chromophore (Europium-cryptate). IL-17A is present as a dimer that is “locked into” this quaternary structure due to the formation of loop-spanning […] disulfide bridges. The construct of IL-17RA used in the assay excludes the […] portion of the receptor and is fused to a C-terminal 10×His tag (SEQ ID NO:2). An antibody directed against the His tag of the IL-17RA chimera is labeled with the HTRF acceptor chromophore (“D2”). The fluorescence-resonance energy transfer (FRET) depends on the vicinity of the donor chromophore to the acceptor, and interruption of the binding between the IL-17A and IL-17RA causes the reduction/loss of FRET. Therefore, this assay allows to evaluate the compound effect on the binding IL-17A and IL-17RA by monitoring the fluorescence intensity of donor vs acceptor. The assay was run using either Protocol 1 or Protocol 2 as described below.
Protocol 1. 40 nl of 2-fold serial diluted compound solution for total 22 dilution points is added into each well of a 1536-well, white, low-volume, non-binding plate (Greiner #782904), then 2 μl of FLAG tagged IL-17A at 2× final concentration (2.5 nM) in solution of PBS+0.01% Triton-X100 is added to each well. The assay plate is briefly centrifuged then incubated for 1 h at rt. A mixed solution is prepared containing 2×5 nM 10HIS×IL-17RA, 2×2.5 nM Eu-anti-FLAG (CISBIO), 2×5 nM D2-anti-HIS (CISBIO) in PBS+0.01% Triton-X100+200 mM Potassium Fluoride (Sigma 60238) and 2 μl of mix is added to each well of the assay plate. The plate is briefly centrifuged then incubated for 2 h at rt. The HTRF intensities at the wavelength of donor (620 nm) and acceptor (665 nm) are measured using BMG Pherastar. The ratio between intensities at two wavelengths is calculated and plotted against the compound concentration and the data is fitted to a one-site competition model to yield IC50 of the compound.

Sequence of UniProt Q16552 (Q16552 with tags, fused parts or gaps K93Q): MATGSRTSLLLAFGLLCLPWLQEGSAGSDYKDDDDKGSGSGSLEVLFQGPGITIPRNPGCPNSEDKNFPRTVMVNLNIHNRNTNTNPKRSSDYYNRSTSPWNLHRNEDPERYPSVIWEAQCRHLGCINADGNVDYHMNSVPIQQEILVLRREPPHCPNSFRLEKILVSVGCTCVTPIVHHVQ

With Cc1nonc1C(=O)NC(COC(C)(C)C(F)(F)F)c1nc2cc([C@@H](C)N3C[C@@H](C(F)(F)F)NC3=O)ccc2[nH]1 (single isomer, unassigned) [Example 6, 4-Methyl-N—((R*)-1-(5-((R)-1-((S)-2-oxo-4-(trifluoromethyl)imidazolidin-1-yl)ethyl)-1H-benzo[d]imidazol-2-yl)-2-((1,1,1-trifluoro-2-methylpropan-2-yl)oxy)ethyl)-1,2,5-oxadiazole-3-carboxamide] the IC50 ([1]; Homo sapiens, Keratinocyte) was under 50 nM and the IC50 [2] was under 50 nM.
Work on [2H]C1([2H])[C@@H](C(F)(F)F)NC(=O)N1[C@@H](c1ccc2[nH]c([C@@H](NC(=O)c3nonc3C)[C@@H](C)O[C@@H](C)C(F)(F)F)nc2c1)C1CC1 (relative stereo) [Example 12, N-((1R*,2R)-1-(5-((R)-Cyclopropyl((S*)-2-oxo-4-(trifluoromethyl)imidazolidin-1-yl-5,5-d2)methyl)-1H-benzo[d]imidazol-2-yl)-2-(((S)-1,1,1-trifluoropropan-2-yl)oxy)propyl)-4-methyl-1,2,5-oxadiazole-3-carboxamide] yielded an IC50 [1] of under 50 nM and an IC50 [2] of under 50 nM.
With C[C@H](c1ccc2[nH]c([C@H](COC(C)(C)C(F)(F)F)NC(=O)c3nonc3C3CC3)nc2c1)N1CC(F)(F)CNC1=O (relative stereo) [Example 25, 4-Cyclopropyl-N—((R)-1-(5-((R*)-1-(5,5-difluoro-2-oxotetrahydropyrimidin-1(2H)-yl)ethyl)-1H-benzo[d]imidazol-2-yl)-2-((1,1,1-trifluoro-2-methylpropan-2-yl)oxy)ethyl)-1,2,5-oxadiazole-3-carboxamide] the IC50 ([1]; Homo sapiens, Keratinocyte) was under 50 nM and the IC50 [2] was under 50 nM.
Work on COC[C@H](c1ccc2[nH]c(C(COC(C)(C)C(F)(F)F)NC(=O)c3nonc3C)nc2c1)N1CC(F)(F)CNC1=O (single isomer, unassigned) [Example 34, N—((R*)-1-(5-((S)-1-(5,5-Difluoro-2-oxotetrahydropyrimidin-1(2H)-yl)-2-methoxyethyl)-1H-benzo[d]imidazol-2-yl)-2-((1,1,1-trifluoro-2-methylpropan-2-yl)oxy)ethyl)-4-methyl-1,2,5-oxadiazole-3-carboxamide] yielded an IC50 ([1]; Homo sapiens, Keratinocyte) of under 50 nM and an IC50 [2] of under 50 nM.
With Cc1nonc1C(=O)N[C@@H](COC(C)(C)C(F)(F)F)c1nc2cc(CN3C[C@](C)(C(F)(F)F)NC3=O)ccc2[nH]1 (relative stereo) [Example 57, 4-Methyl-N—((R*)-1-(5-(((R*)-4-methyl-2-oxo-4-(trifluoromethyl)imidazolidin-1-yl)methyl)-1H-benzo[d]imidazol-2-yl)-2-((1,1,1-trifluoro-2-methylpropan-2-yl)oxy)ethyl)-1,2,5-oxadiazole-3-carboxamide] the IC50 ([1]; Homo sapiens, Keratinocyte) was over 100 nM and the IC50 [2] was under 50 nM.
COC[C@H](c1ccc2[nH]c(C(COC(C)(C)C(F)(F)F)NC(=O)c3nonc3C3CC3)nc2c1)N1C[C@@H](C(F)(F)F)NC1=O (single isomer, unassigned) [Example 47, 4-Cyclopropyl-N—((R*)-1-(5-((S)-2-methoxy-1-((S)-2-oxo-4-(trifluoromethyl)imidazolidin-1-yl)ethyl)-1H-benzo[d]imidazol-2-yl)-2-((1,1,1-trifluoro-2-methylpropan-2-yl)oxy)ethyl)-1,2,5-oxadiazole-3-carboxamide] showed an IC50 ([1]; Homo sapiens, Keratinocyte) of under 50 nM and an IC50 [2] of under 50 nM.
CC(C)n1nccc1C(=O)N[C@@H](COC(C)(C)C(F)(F)F)c1nc2cc([C@@H](C)N3CC(F)(F)CNC3=O)ccc2[nH]1 (relative stereo) [Example 27, N—((R)-1-(5-((R*)-1-(5,5-Difluoro-2-oxotetrahydropyrimidin-1(2H)-yl)ethyl)-1H-benzo[d]imidazol-2-yl)-2-((1,1,1-trifluoro-2-methylpropan-2-yl)oxy)ethyl)-1-isopropyl-1H-pyrazole-5-carboxamide] gave an IC50 ([1]; Homo sapiens, Keratinocyte) of under 50 nM and an IC50 [2] of under 50 nM.
In the case of CC(C)(OC[C@@H](NC(=O)c1nonc1C1CC1)c1nc2cc(CN3C[C@@H](C(F)(F)F)NC3=O)ccc2[nH]1)C(F)(F)F (single isomer, unassigned) [Example 16], the IC50 ([1]; Homo sapiens, Keratinocyte) is reported as over 100 nM and the IC50 [2] is reported as over 100 nM.
